7 cell lines from the supplement of paper PMC10307832 can be followed below.

Test in all cases: relative viability (nuclei count vs DMSO), 5 days (fraction); higher = more cells survive
Compound in the experiment “Kobe2602 + Trametinib”: C1=CC(=CC=C1NC(=S)NNC2=C(C=C(C=C2[N+](=O)[O-])C(F)(F)F)[N+](=O)[O-])F [Kobe2602] + CC(=O)Nc1cccc(-n2c(=O)n(C3CC3)c(=O)c3c(Nc4ccc(I)cc4F)n(C)c(=O)c(C)c32)c1 [Trametinib] (partner 0.02 µM)
The procedure, abridged:
(§1)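 Five library-drug doses in √10 steps were combined with a fixed anchor-drug dose, or a single drug was given alone, by pin tool to lung cancer cell lines in 1536-well plates the day after seeding. Nuclei were stained and counted after 5 days. Relative viability is the nuclei count in treated wells over that in vehicle wells, taken as the median of duplicate plates.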

Compound in the experiment “Kobe2602 + Pictilisib”: C1=CC(=CC=C1NC(=S)NNC2=C(C=C(C=C2[N+](=O)[O-])C(F)(F)F)[N+](=O)[O-])F [Kobe2602] + CS(=O)(=O)N1CCN(Cc2cc3nc(-c4cccc5[nH]ncc45)nc(N4CCOCC4)c3s2)CC1 [Pictilisib] (partner 1 µM)
The procedure, abridged:
as §1

Compound in the experiment “Cabozantinib + Alpelisib”: COc1cc2nccc(Oc3ccc(NC(=O)C4(C(=O)Nc5ccc(F)cc5)CC4)cc3)c2cc1OC [Cabozantinib] + Cc1nc(NC(=O)N2CCC[C@H]2C(N)=O)sc1-c1ccnc(C(C)(C)C(F)(F)F)c1 [Alpelisib] (partner 2 µM)
The procedure, abridged:
as §1

Compound in the experiment “Zosuquidar + Phenformin”: O[C@@H](COc1cccc2ncccc12)CN1CCN([C@@H]2c3ccccc3[C@@H]3[C@H](c4ccccc42)C3(F)F)CC1 [Zosuquidar] + N=C(N)NC(=N)NCCc1ccccc1 [Phenformin] (partner 250 µM)
The procedure, abridged:
as §1

With NCI-H23, the relative viability was determined as 0.428 in the experiment with Kobe2602 + Trametinib (first compound 0.2 µM); 0.49 with Kobe2602 + Trametinib (first compound 0.6325 µM); 0.359 with Kobe2602 + Trametinib (first compound 2 µM); 0.385 with Kobe2602 + Trametinib (first compound 6.325 µM); 0.444 with Kobe2602 + Trametinib (first compound 20 µM); 0.47 in the experiment with Kobe2602 + Pictilisib (first compound 0.2 µM). The relative viability with Kobe2602 + Pictilisib (first compound 0.6325 µM) stood at 0.581; in the experiment with Kobe2602 + Pictilisib (first compound 2 µM), 0.491; with Kobe2602 + Pictilisib (first compound 6.325 µM), 0.516; in the experiment with Kobe2602 + Pictilisib (first compound 20 µM) it was 0.497; with Cabozantinib + Alpelisib (first compound 0.06325 µM) it was 0.794; with Cabozantinib + Alpelisib (first compound 0.2 µM), 0.716. For the same cell line, the relative viability in the experiment with Cabozantinib + Alpelisib (first compound 0.6325 µM) was 0.646; with Cabozantinib + Alpelisib (first compound 2 µM) it was 0.545; in the experiment with Zosuquidar + Phenformin (first compound 0.01 µM) it was 0.722; with Zosuquidar + Phenformin (first compound 0.03162 µM) it was 0.708; with Zosuquidar + Phenformin (first compound 0.1 µM), 0.78; in the experiment with Zosuquidar + Phenformin (first compound 0.3162 µM) it was 0.895. Also, the relative viability in the experiment with Zosuquidar + Phenformin (first compound 1 µM) stood at 0.805.

In the case of NCI-H322M, the relative viability is 0.555 in the experiment with Kobe2602 + Trametinib (first compound 0.2 µM); 0.495 in the experiment with Kobe2602 + Trametinib (first compound 0.6325 µM); 0.5 with Kobe2602 + Trametinib (first compound 2 µM); 0.467 in the experiment with Kobe2602 + Trametinib (first compound 6.325 µM); 0.521 in the experiment with Kobe2602 + Trametinib (first compound 20 µM); 0.566 in the experiment with Kobe2602 + Pictilisib (first compound 0.2 µM). The relative viability was found to be 0.533 with Kobe2602 + Pictilisib (first compound 0.6325 µM); 0.534 in the experiment with Kobe2602 + Pictilisib (first compound 2 µM); 0.511 with Kobe2602 + Pictilisib (first compound 6.325 µM); 0.554 in the experiment with Kobe2602 + Pictilisib (first compound 20 µM); 0.77 with Cabozantinib + Alpelisib (first compound 0.02 µM); 0.881 with Cabozantinib + Alpelisib (first compound 0.06325 µM). Besides, the relative viability is 0.846 with Cabozantinib + Alpelisib (first compound 0.6325 µM); 0.773 with Cabozantinib + Alpelisib (first compound 2 µM); 0.809 with Zosuquidar + Phenformin (first compound 0.01 µM); 0.856 in the experiment with Zosuquidar + Phenformin (first compound 0.03162 µM); 0.586 in the experiment with Zosuquidar + Phenformin (first compound 0.1 µM); 0.793 with Zosuquidar + Phenformin (first compound 0.3162 µM). Besides, the relative viability with Zosuquidar + Phenformin (first compound 1 µM) came out at 0.858.

Consider NCI-H358, for which the relative viability in the experiment with Kobe2602 + Trametinib (first compound 0.2 µM) is 0.138; with Kobe2602 + Trametinib (first compound 0.6325 µM), 0.15; with Kobe2602 + Trametinib (first compound 2 µM), 0.135; with Kobe2602 + Trametinib (first compound 6.325 µM), 0.16; with Kobe2602 + Trametinib (first compound 20 µM), 0.141; with Kobe2602 + Pictilisib (first compound 0.2 µM), 0.301. In addition, the relative viability with Kobe2602 + Pictilisib (first compound 0.6325 µM) is 0.324; with Kobe2602 + Pictilisib (first compound 2 µM), 0.332; in the experiment with Kobe2602 + Pictilisib (first compound 6.325 µM), 0.39; with Kobe2602 + Pictilisib (first compound 20 µM), 0.318; with Cabozantinib + Alpelisib (first compound 0.02 µM) it was 0.912; with Cabozantinib + Alpelisib (first compound 0.06325 µM) it was 1.13. Moreover, the relative viability with Cabozantinib + Alpelisib (first compound 0.2 µM) was found to be 0.852; with Cabozantinib + Alpelisib (first compound 0.6325 µM), 0.803; with Cabozantinib + Alpelisib (first compound 2 µM), 0.824; with Zosuquidar + Phenformin (first compound 0.01 µM), 0.278; with Zosuquidar + Phenformin (first compound 0.03162 µM) it was 0.293; with Zosuquidar + Phenformin (first compound 0.1 µM), 0.281. In addition, the relative viability was determined as 0.359 in the experiment with Zosuquidar + Phenformin (first compound 0.3162 µM) and 0.335 with Zosuquidar + Phenformin (first compound 1 µM).

Turning to NCI-H441, the relative viability was 0.509 in the experiment with Kobe2602 + Trametinib (first compound 0.2 µM); 0.496 with Kobe2602 + Trametinib (first compound 0.6325 µM); 0.472 with Kobe2602 + Trametinib (first compound 2 µM); 0.433 with Kobe2602 + Trametinib (first compound 6.325 µM); 0.54 with Kobe2602 + Trametinib (first compound 20 µM); 0.46 with Kobe2602 + Pictilisib (first compound 0.2 µM). In addition, the relative viability in the experiment with Kobe2602 + Pictilisib (first compound 0.6325 µM) stood at 0.495; with Kobe2602 + Pictilisib (first compound 2 µM), 0.538; in the experiment with Kobe2602 + Pictilisib (first compound 6.325 µM) it was 0.483; with Kobe2602 + Pictilisib (first compound 20 µM) it was 0.409; with Cabozantinib + Alpelisib (first compound 0.06325 µM), 0.857; in the experiment with Cabozantinib + Alpelisib (first compound 0.2 µM), 0.663. Also, the relative viability came to 0.815 in the experiment with Cabozantinib + Alpelisib (first compound 0.6325 µM); 0.783 with Cabozantinib + Alpelisib (first compound 2 µM); 0.903 with Zosuquidar + Phenformin (first compound 0.01 µM); 0.845 in the experiment with Zosuquidar + Phenformin (first compound 0.03162 µM); 0.643 with Zosuquidar + Phenformin (first compound 0.1 µM); 0.832 in the experiment with Zosuquidar + Phenformin (first compound 0.3162 µM). Also, the relative viability in the experiment with Zosuquidar + Phenformin (first compound 1 µM) is 0.916.

For the cell line NCI-H460, the relative viability with Kobe2602 + Trametinib (first compound 0.6325 µM) was 0.198; with Kobe2602 + Trametinib (first compound 2 µM) it was 0.183; with Kobe2602 + Trametinib (first compound 6.325 µM) it was 0.166; with Kobe2602 + Trametinib (first compound 20 µM), 0.111; with Kobe2602 + Pictilisib (first compound 0.2 µM), 0.392; with Kobe2602 + Pictilisib (first compound 0.6325 µM), 0.373. For the same cell line, the relative viability came out at 0.463 with Kobe2602 + Pictilisib (first compound 2 µM); 0.365 with Kobe2602 + Pictilisib (first compound 6.325 µM); 0.403 with Kobe2602 + Pictilisib (first compound 20 µM); 0.667 in the experiment with Cabozantinib + Alpelisib (first compound 0.02 µM); 0.61 with Cabozantinib + Alpelisib (first compound 0.06325 µM); 0.459 with Cabozantinib + Alpelisib (first compound 0.2 µM). Besides, the relative viability came to 0.579 with Cabozantinib + Alpelisib (first compound 0.6325 µM); 0.483 with Cabozantinib + Alpelisib (first compound 2 µM); 0.48 with Zosuquidar + Phenformin (first compound 0.01 µM); 0.508 with Zosuquidar + Phenformin (first compound 0.03162 µM); 0.445 with Zosuquidar + Phenformin (first compound 0.1 µM); 0.529 with Zosuquidar + Phenformin (first compound 0.3162 µM). Besides, the relative viability in the experiment with Zosuquidar + Phenformin (first compound 1 µM) turned out to be 0.498.

NCI-H520: the relative viability worked out at 0.682 with Kobe2602 + Trametinib (first compound 0.2 µM); 0.642 with Kobe2602 + Trametinib (first compound 0.6325 µM); 0.744 in the experiment with Kobe2602 + Trametinib (first compound 2 µM); 0.644 with Kobe2602 + Trametinib (first compound 6.325 µM); 0.788 with Kobe2602 + Trametinib (first compound 20 µM); 0.253 with Kobe2602 + Pictilisib (first compound 0.2 µM). Besides, the relative viability in the experiment with Kobe2602 + Pictilisib (first compound 0.6325 µM) worked out at 0.364; in the experiment with Kobe2602 + Pictilisib (first compound 2 µM), 0.255; with Kobe2602 + Pictilisib (first compound 6.325 µM), 0.225; with Kobe2602 + Pictilisib (first compound 20 µM), 0.292; with Cabozantinib + Alpelisib (first compound 0.02 µM) it was 0.92; with Cabozantinib + Alpelisib (first compound 0.06325 µM), 0.928. The relative viability worked out at 0.958 with Cabozantinib + Alpelisib (first compound 0.2 µM); 0.713 with Cabozantinib + Alpelisib (first compound 0.6325 µM); 0.833 with Cabozantinib + Alpelisib (first compound 2 µM); 0.567 with Zosuquidar + Phenformin (first compound 0.01 µM); 0.579 in the experiment with Zosuquidar + Phenformin (first compound 0.03162 µM); 0.658 in the experiment with Zosuquidar + Phenformin (first compound 0.3162 µM). Further, in the experiment with Zosuquidar + Phenformin (first compound 1 µM), the relative viability worked out at 0.565.

Consider NCI-H596, for which the relative viability was 0.759 in the experiment with Kobe2602 + Trametinib (first compound 0.2 µM); 0.685 with Kobe2602 + Trametinib (first compound 0.6325 µM); 0.772 with Kobe2602 + Trametinib (first compound 2 µM); 0.792 with Kobe2602 + Trametinib (first compound 6.325 µM); 0.859 with Kobe2602 + Trametinib (first compound 20 µM); 0.222 with Kobe2602 + Pictilisib (first compound 0.2 µM). Also, the relative viability worked out at 0.432 with Kobe2602 + Pictilisib (first compound 0.6325 µM); 0.395 with Kobe2602 + Pictilisib (first compound 2 µM); 0.403 with Kobe2602 + Pictilisib (first compound 6.325 µM); 0.422 with Kobe2602 + Pictilisib (first compound 20 µM); 0.462 with Cabozantinib + Alpelisib (first compound 0.02 µM); 0.191 with Cabozantinib + Alpelisib (first compound 0.06325 µM). In addition, the relative viability turned out to be 0.552 with Cabozantinib + Alpelisib (first compound 0.2 µM); 0.416 with Cabozantinib + Alpelisib (first compound 0.6325 µM); 0.385 with Cabozantinib + Alpelisib (first compound 2 µM); 0.765 with Zosuquidar + Phenformin (first compound 0.01 µM); 0.798 with Zosuquidar + Phenformin (first compound 0.1 µM); 0.909 with Zosuquidar + Phenformin (first compound 0.3162 µM). Also, the relative viability with Zosuquidar + Phenformin (first compound 1 µM) is 0.761.
